Values joined by “and” are separate entries in the source; they are usually repeats but may differ in a detail not shown here. Equal values may be shown once. Records with an inconclusive call do not appear.

This experiment concerns BDF1 mice, colon carcinoma 38 sc, T/C %. Nature of the experiment: NCI In Vivo Anticancer Drug Screen. Data for tumor model Colon Carcinoma 38 (subcutaneous) in B6D2F1 (BDF1) mice. Summed up: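 Transplantable tumor in mice; compound-treated vs vehicle-dosed controls. Measured survival or tumor size; value = T ÷ C.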
Where [1] appears, read: endpoint: median tumor weight (est.), dose: 2.0 mg/kg/injection, schedule: Q07DX002 (ip), vehicle: saline, higher = larger tumour.
[2] abbreviates: endpoint: median tumor weight (est.), dose: 50.0 mg/kg/injection, schedule: Q07DX002 (ip), vehicle: Klucel (hydroxypropylcellulose) (HPC), higher = larger tumour.
Where [3] appears, read: endpoint: median tumor weight (est.), dose: 200.0 mg/kg/injection, schedule: Q07DX002 (ip), vehicle: Klucel (hydroxypropylcellulose) (HPC), higher = larger tumour.
Where [4] appears, read: endpoint: median tumor weight (est.), dose: 400.0 mg/kg/injection, schedule: Q07DX002 (ip), vehicle: Klucel (hydroxypropylcellulose) (HPC), higher = larger tumour.
Setting [5] is: endpoint: median tumor weight (est.), dose: 800.0 mg/kg/injection, schedule: Q07DX002 (ip), vehicle: Klucel (hydroxypropylcellulose) (HPC), higher = larger tumour.

As to `COc1ccc(CC2C(=O)NC(C)C(=O)N(C)C3C(=O)N(C)C(Cc4ccc(O)c(c4)Oc4ccc(cc4)C3O)C(=O)NC(C)C(=O)NC(C)C(=O)N2C)cc1` (centres undefined), the T/C runs as follows: (endpoint: median tumor weight (est.), dose: 0.5 mg/kg/injection, schedule: Q07DX003 (ip), vehicle: Klucel (hydroxypropylcellulose) (HPC), higher = larger tumour) 98 % of control; (endpoint: median tumor weight (est.), dose: 1.0 mg/kg/injection, schedule: Q07DX003 (ip), vehicle: Klucel (hydroxypropylcellulose) (HPC), higher = larger tumour) 106 % of control; (endpoint: median tumor weight (est.), dose: 4.0 mg/kg/injection, schedule: Q07DX003 (ip), vehicle: Klucel (hydroxypropylcellulose) (HPC), higher = larger tumour) 182 % of control; (endpoint: median tumor weight (est.), dose: 8.0 mg/kg/injection, schedule: Q07DX003 (ip), vehicle: Klucel (hydroxypropylcellulose) (HPC), higher = larger tumour) 159 % of control; (endpoint: median tumor weight (est.), dose: 16.0 mg/kg/injection, schedule: Q07DX003 (ip), vehicle: Klucel (hydroxypropylcellulose) (HPC), higher = larger tumour) 44 % of control.
Take `CC1OC(OC2CC(O)(C(=O)CO)Cc3c(O)c4c(c(O)c32)C(=O)c2ccccc2C4=O)CC(N)C1O` (centres undefined): the T/C reads like this: (endpoint: median survival time, dose: 1.2 mg/kg/injection, schedule: Q07DX003 (iv), vehicle: saline, higher = longer survival) 108 % of control; (endpoint: median survival time, dose: 1.9 mg/kg/injection, schedule: Q07DX003 (iv), vehicle: saline, higher = longer survival) 111 % of control; (endpoint: median tumor weight (est.), dose: 0.12 mg/kg/injection, schedule: Q07DX002 (ip), vehicle: water, higher = larger tumour) 120 % of control; (endpoint: median tumor weight (est.), dose: 0.25 mg/kg/injection, schedule: Q07DX002 (ip), vehicle: saline, higher = larger tumour) 113 % of control; (endpoint: median tumor weight (est.), dose: 0.25 mg/kg/injection, schedule: Q07DX002 (ip), vehicle: water, higher = larger tumour) 90 % of control; (endpoint: median tumor weight (est.), dose: 0.5 mg/kg/injection, schedule: Q07DX002 (ip), vehicle: saline, higher = larger tumour) 104 % of control. Besides, the T/C was 78 % of control (endpoint: median tumor weight (est.), dose: 0.5 mg/kg/injection, schedule: Q07DX002 (ip), vehicle: water, higher = larger tumour); 69 % of control (endpoint: median tumor weight (est.), dose: 1.0 mg/kg/injection, schedule: Q07DX002 (ip), vehicle: saline, higher = larger tumour); 23 % of control (endpoint: median tumor weight (est.), dose: 1.0 mg/kg/injection, schedule: Q07DX002 (ip), vehicle: water, higher = larger tumour); 72 % of control under setting [1].
As for `O=C(CC(=O)C(F)(F)F)c1csc2ccccc12`, the T/C is 110 % of control and 90 % of control (endpoint: median tumor weight (est.), dose: 12.5 mg/kg/injection, schedule: Q07DX002 (ip), vehicle: Klucel (hydroxypropylcellulose) (HPC), higher = larger tumour); 76 % of control under setting [2]; 62 % of control under setting [3].
Regarding `CN(C)c1ccc2c(SCC(=O)OCC(=O)[C@@]3(O)CC[C@H]4[C@@H]5CCC6=CC(=O)C=C[C@]6(C)[C@H]5C(=O)C[C@@]43C)c3ccc(N(C)C)cc3nc2c1`, the T/C was 82 % of control under setting [2]; 69 % of control (endpoint: median tumor weight (est.), dose: 100.0 mg/kg/injection, schedule: Q07DX002 (ip), vehicle: Klucel (hydroxypropylcellulose) (HPC), higher = larger tumour); 56 % of control under setting [3]; 77 % of control under setting [4]; 62 % of control under setting [5].
As to `O=CC(=O)c1ccc(O)cc1`, the T/C is, setting by setting: (endpoint: median tumor weight (est.), dose: 6.25 mg/kg/injection, schedule: Q07DX002 (ip), vehicle: suspension in saline, higher = larger tumour) 216 % of control; (endpoint: median tumor weight (est.), dose: 12.5 mg/kg/injection, schedule: Q07DX002 (ip), vehicle: suspension in saline, higher = larger tumour) 114 % of control; (endpoint: median tumor weight (est.), dose: 25.0 mg/kg/injection, schedule: Q07DX002 (ip), vehicle: suspension in saline, higher = larger tumour) 153 % of control; (endpoint: median tumor weight (est.), dose: 50.0 mg/kg/injection, schedule: Q07DX002 (ip), vehicle: suspension in saline, higher = larger tumour) 153 % of control; (endpoint: median tumor weight (est.), dose: 200.0 mg/kg/injection, schedule: Q07DX002 (ip), vehicle: suspension in saline, higher = larger tumour) 118 % of control.
With `CCCCCCCC(=O)OCC(=O)[C@]1(O)Cc2c(O)c3c(c(O)c2[C@@H](OC2CC(N)C(O)C(C)O2)C1)C(=O)c1c(OC)cccc1C3=O` (some centres undefined), the T/C is 75 % of control (endpoint: median tumor weight (est.), dose: 2.0 mg/kg/injection, schedule: Q07DX002 (ip), vehicle: suspension in saline, higher = larger tumour); 70 % of control (endpoint: median tumor weight (est.), dose: 4.0 mg/kg/injection, schedule: Q07DX002 (ip), vehicle: suspension in saline, higher = larger tumour); 37 % of control (endpoint: median tumor weight (est.), dose: 8.0 mg/kg/injection, schedule: Q07DX002 (ip), vehicle: suspension in saline, higher = larger tumour).
On to `CC1=C/C(O)CC(=O)Cc2nc(co2)C(=O)N2CCC=C2C(=O)OC(C(C)C)C(C)/C=C\C(=O)NC/C=C\1` (centres undefined), for which the T/C runs as follows: under setting [2], 109 % of control; under setting [4], 102 % of control; under setting [5], 117 % of control.
As for `O=C1C=CC(n2cc(F)c(=O)[nH]c2=O)O1` (centres undefined), the T/C (endpoint: median tumor weight (est.), dose: 12.5 mg/kg/injection, schedule: Q07DX002 (ip), vehicle: saline, higher = larger tumour) was 113 % of control; the T/C (endpoint: median tumor weight (est.), dose: 100.0 mg/kg/injection, schedule: Q07DX002 (ip), vehicle: saline, higher = larger tumour) is 54 % of control; the T/C (endpoint: median tumor weight (est.), dose: 200.0 mg/kg/injection, schedule: Q07DX002 (ip), vehicle: saline, higher = larger tumour) is 116 % of control.
Take `CC(=O)OC1COC(NC(=O)N(CCCl)N=O)C(OC(C)=O)C1OC(C)=O` (centres undefined): the T/C was 92 % of control (endpoint: median tumor weight (est.), dose: 0.75 mg/kg/injection, schedule: Q07DX002 (ip), vehicle: saline with Tween-80, higher = larger tumour); 84 % of control (endpoint: median tumor weight (est.), dose: 1.5 mg/kg/injection, schedule: Q07DX002 (ip), vehicle: saline with Tween-80, higher = larger tumour); 66 % of control (endpoint: median tumor weight (est.), dose: 3.0 mg/kg/injection, schedule: Q07DX002 (ip), vehicle: saline with Tween-80, higher = larger tumour); 92 % of control (endpoint: median tumor weight (est.), dose: 6.0 mg/kg/injection, schedule: Q07DX002 (ip), vehicle: saline with Tween-80, higher = larger tumour); 44 % of control (endpoint: median tumor weight (est.), dose: 12.0 mg/kg/injection, schedule: Q07DX002 (ip), vehicle: saline with Tween-80, higher = larger tumour).
For the compound `C=C1C(=O)OC2CC1CCC1(C)OC1CCC(C)=CCCC2(C)O` (centres undefined), the T/C was 155 % of control (endpoint: median tumor weight (est.), dose: 3.75 mg/kg/injection, schedule: Q07DX002 (ip), vehicle: Klucel (hydroxypropylcellulose) (HPC), higher = larger tumour); 155 % of control (endpoint: median tumor weight (est.), dose: 7.5 mg/kg/injection, schedule: Q07DX002 (ip), vehicle: Klucel (hydroxypropylcellulose) (HPC), higher = larger tumour); 99 % of control (endpoint: median tumor weight (est.), dose: 30.0 mg/kg/injection, schedule: Q07DX002 (ip), vehicle: Klucel (hydroxypropylcellulose) (HPC), higher = larger tumour); 123 % of control (endpoint: median tumor weight (est.), dose: 60.0 mg/kg/injection, schedule: Q07DX002 (ip), vehicle: Klucel (hydroxypropylcellulose) (HPC), higher = larger tumour).
As to `OCC1OC(n2cnc3c2NC=NC[C@H]3O)CC1O` (some centres undefined), the T/C is, setting by setting: (endpoint: median tumor weight (est.), dose: 0.63 mg/kg/injection, schedule: Q07DX002 (ip), vehicle: saline, higher = larger tumour) 70 % of control; (endpoint: median tumor weight (est.), dose: 1.25 mg/kg/injection, schedule: Q07DX002 (ip), vehicle: saline, higher = larger tumour) 83 % of control; under setting [1], 68 % of control; (endpoint: median tumor weight (est.), dose: 2.5 mg/kg/injection, schedule: Q07DX002 (ip), vehicle: saline, higher = larger tumour) 43 % of control; (endpoint: median tumor weight (est.), dose: 5.0 mg/kg/injection, schedule: Q07DX002 (ip), vehicle: saline, higher = larger tumour) 90 % of control; (endpoint: median tumor weight (est.), dose: 8.0 mg/kg/injection, schedule: Q07DX002 (ip), vehicle: saline, higher = larger tumour) 67 % of control. For the same compound, the T/C reads like this: (endpoint: median tumor weight (est.), dose: 10.0 mg/kg/injection, schedule: Q07DX002 (ip), vehicle: saline, higher = larger tumour) 45 % of control; (endpoint: median tumor weight (est.), dose: 16.0 mg/kg/injection, schedule: Q07DX002 (ip), vehicle: saline, higher = larger tumour) 74 % of control.
As for `NC(=S)N/N=C\c1ncccc1OCc1cccc(N)c1`, the T/C (endpoint: median tumor weight (est.), dose: 25.0 mg/kg/injection, schedule: Q07DX002 (ip), vehicle: distilled water + Tween-80, higher = larger tumour) was 80 % of control; the T/C (endpoint: median tumor weight (est.), dose: 50.0 mg/kg/injection, schedule: Q07DX002 (ip), vehicle: distilled water + Tween-80, higher = larger tumour) is 79 % of control; the T/C (endpoint: median tumor weight (est.), dose: 100.0 mg/kg/injection, schedule: Q07DX002 (ip), vehicle: distilled water + Tween-80, higher = larger tumour) was 78 % of control; the T/C (endpoint: median tumor weight (est.), dose: 200.0 mg/kg/injection, schedule: Q07DX002 (ip), vehicle: distilled water + Tween-80, higher = larger tumour) is 71 % of control; the T/C (endpoint: median tumor weight (est.), dose: 400.0 mg/kg/injection, schedule: Q07DX002 (ip), vehicle: distilled water + Tween-80, higher = larger tumour) is 80 % of control.
`Nc1ccc(C(OC(=O)c2cc3ccccc3c(Cc3c(O)c(C(=O)OC(c4ccc(N)cc4)(c4ccc(N)cc4)c4ccc(N)cc4)cc4ccccc34)c2O)(c2ccc(N)cc2)c2ccc(N)cc2)cc1`: the T/C is, setting by setting: (endpoint: median tumor weight (est.), dose: 1.56 mg/kg/injection, schedule: Q07DX002 (ip), vehicle: saline with Tween-80, higher = larger tumour) 100 % of control; (endpoint: median tumor weight (est.), dose: 3.12 mg/kg/injection, schedule: Q07DX002 (ip), vehicle: saline with Tween-80, higher = larger tumour) 70 % of control; (endpoint: median tumor weight (est.), dose: 6.25 mg/kg/injection, schedule: Q07DX002 (ip), vehicle: saline with Tween-80, higher = larger tumour) 92 % of control; (endpoint: median tumor weight (est.), dose: 25.0 mg/kg/injection, schedule: Q07DX002 (ip), vehicle: saline with Tween-80, higher = larger tumour) 84 % of control and 93 % of control; (endpoint: median tumor weight (est.), dose: 50.0 mg/kg/injection, schedule: Q07DX002 (ip), vehicle: saline with Tween-80, higher = larger tumour) 114 % of control.

These data come from PubChem BioAssay AID212 (DTP/NCI, 2004).
